{"source": "patent US20250092340A1", "about": "“METHOD FOR INDUSTRIALLY PRODUCING MOGROSIDE, FRUCTUS MOMORDICAE SUGAR/WINE AND MANNITOL FROM FRESH FRUCTUS MOMORDICAE” (priority 2022, published 2025)", "origin": "cited, not measured here", "settings": "background statement", "data": [{"smiles": "C[C@H](CC[C@@H](O[C@@H]1O[C@H](CO)[C@@H](O)[C@H](O)[C@H]1O[C@@H]1O[C@H](CO)[C@@H](O)[C@H](O)[C@H]1O)C(C)(C)O)[C@H]1CC[C@@]2(C)[C@H]3CC=C4[C@@H](CC[C@H](O[C@@H]5O[C@H](CO[C@@H]6O[C@H](CO)[C@@H](O)[C@H](O)[C@H]6O)[C@@H](O)[C@H](O)[C@H]5O)C4(C)C)[C@]3(C)[C@H](O)C[C@]12C", "note": "[mogroside IV]", "values": [{"measurement": "sweetness relative to sucrose", "result": "126 folds of that of sucrose"}]}, {"smiles": "C[C@H](CC[C@@H](O[C@@H]1O[C@H](CO[C@@H]2O[C@H](CO)[C@@H](O)[C@H](O)[C@H]2O)[C@@H](O)[C@H](O)[C@H]1O[C@@H]1O[C@H](CO)[C@@H](O)[C@H](O)[C@H]1O)C(C)(C)O)[C@H]1CC[C@@]2(C)[C@@H]3CC=C4[C@@H](CC[C@H](O[C@@H]5O[C@H](CO[C@@H]6O[C@H](CO)[C@@H](O)[C@H](O)[C@H]6O)[C@@H](O)[C@H](O)[C@H]5O)C4(C)C)[C@]3(C)[C@H](O)C[C@]12C", "note": "[mogroside V]", "values": [{"measurement": "sweetness relative to sucrose", "result": "256-344 folds of that of sucrose"}]}]}
